The nature of the series: Log D determination (octanol / phosphate buffer pH 7.4). The note with it: octanol / 0.1 M phosphate buffer pH 7.4, pH 7.4. An excerpt: Lipophilicity is a key determinant of the PK behavior of drugs. It can influence distribution into tissues, absorption and the binding characteristics of a drug, as well as being an important factor in determining the solubility of a compound. Log D (distribution co-efficient) is used as a measure of lipophilicity.
The solution was transferred to tubes, centrifuged and the supernatant is drawn off the top, leaving any solid compound in the bottom. This supernatant was then syringe filtered through 0.2 μm filters to produce the initial solution. Three vials were prepared containing values. […] The vials were mixed to equilibrium, then centrifuged to ensure the two phases were fully separated before the octanol was removed and the buffer samples analyzed. For the quantitative analysis, the aqueous solutions were analyzed by LC MS/MS. The amount of VCE-004.8 in each vial was quantified against a 6 points standard curve which was produced by serially diluting the initial solution. Log D was calculated using the equation, shown in FIG. 7, wherein ConcINITlAL is a concentration of compound in the initial aqueous solution, ConcFINAL is a concentration of compound in final aqueous phase, Vaq is a volume of aqueous phase, and Voct is a volume of octanol phase.

SMILES strings stand for the structures.

The molecule `C=C(C)[C@@H]1CCC(C)=C[C@H]1c1c(O)cc(CCCCC)cc1O` [CBD, cannabidiol] displayed a logD of 5.44.

The logD is the decadic logarithm of the distribution of all forms, ionised or not, between an organic phase and buffer at a given pH. High values mean higher lipophilicity, low ones lower lipophilicity.

(Values after patent US20220184003A1, “Formulations of Cannabidiol Derivatives and Their Use as Modulators of Cannabinoid Receptor Type 2 (CB2)” (EMERALD HEALTH PHARMACEUTICALS INC, priority 2019, published 2022).)
